The text below walks through data of US4749568A, “Rubradirin treatment of methicillin-resistant staph” (The Upjohn Company, priority 1987, dated 1988).

Usually ED50 stands for the midpoint of the dose-response relation.

Assay [1] deals with two clinical strains of S. aureus. The following applies: cited from earlier work.
The subject of assay [2] is Staphylococcus aureus. The assay can be described thus: Susceptibility test of patient isolate. In kind it is cell-based. Particulars: isolate from patient, Examples 1 to 3. As to the method:
It is known to those skilled in the art how to determine which Staphylococcus (aureus or epidermidis) infections are rubradirin-sensitiveand methicillin-resistant by use of standarad susceptibility tests. See, "Dilution Susceptibility Test: agar and macro-broth dilution procedures; Manual of Clinical Microbiology, Third Edition, American Society of Microbiology, 1980, Washington, D.C., p 453-458".
(§1) A 70 kg person has a fever of 103° F. and has symptoms of bacterial pneumonia infection. Standard laboratory tests isolate an organism which is identified as Staphylococcus aureus. […] The patient is given 1000 mg of rubradirin three times daily by mouth. The temperature over a short period goes to 98.6° F. and the clinical symptoms of pneumonia disappear.
(§2) A 60 kg patient has an infection on their arm following a severe burn. They have a 101° F. fever. Standard laboratory tests isolate an organism which is identified as Staphylococcus aureus. […] The patient is treated with a cream containing 3% rubradirin.
A 85 kg person has baceterial endocarditis with a fever of 104° F. Standard laboratory tests isolate an organism which is identified as Staphylococcus aureus. […] The patient is treated with an IV infusion of rubradirin (4.5 mg/ml) at a rate of 60 ml/hr for a dose of 76 mg/kg/day.

In the next assay the test system is S. aureus UC9213. The assay is described as follows: ED50 determination, mice infected intraperitoneally with S. aureus UC9213. In kind it is in vivo, Staphylococcus aureus (infected mice, Charles Fisher #1). Particulars: dosed 1 and 5 hr post infection, 10080 min. As to the method: (§3) Effective Dose50 (ED50) determinations were performed using standard methods. All mice (Charles Fisher #1, 20 g) were given sufficient S. aureus intraperitoneally (IP) to kill 90 to 100% of untreated mice. At least five dosage levels of antibiotics were employed per each ED50 determination. The antibiotic was administered subcutaneous (SQ) or orally at 1 and 5 hr post infection. The mice were monitored for one week with deaths being noted daily. The ED50 values were calculated by probit analysis.
(§4) ^1 The dose of drug in mg/kg of body weight required to protect 50% o
(§5) the infected animals. Drug was dosed one and five hours post infection
(§6) ^2 Paldimycin was dosed SQ.

For the next assay, the system named is S. aureus UC6685. The assay can be described thus: ED50 determination, mice infected intraperitoneally with S. aureus UC6685. In kind it is in vivo, Staphylococcus aureus (infected mice, Charles Fisher #1). The following applies: dosed 1 and 5 hr post infection, 10080 min. As to the method: as §3, §4, §5, §6
The test system of the next assay is S. aureus UC9271. The assay can be described thus: ED50 determination, mice infected intraperitoneally with S. aureus UC9271. In kind it is in vivo, Staphylococcus aureus (infected mice, Charles Fisher #1). The following applies: dosed 1 and 5 hr post infection, 10080 min. As to the method: as §3, §4, §5, §6
Assay [3] concerns Multidrug-resistant staphylococci. Particulars: Orthopedic Clinics of North America 15, 417 (1984); cited from earlier work.
In assay [4] the test system is Staphylococcus aureus. The assay is described as follows: Treatment of patient with bacterial pneumonia (Example 1). It counts as in vivo, Staphylococcus aureus (human patient). The following applies: 70 kg male, 1000 mg three times daily by mouth. As to the method: as §1
For assay [5], the system named is Staphylococcus aureus. The assay can be described thus: Topical treatment of patient with infected burn (Example 2). It counts as in vivo, Staphylococcus aureus (human patient). The following applies: 60 kg female, cream containing 3% rubradirin. As to the method: as §2

`COc1cccc(OC)c1C(=O)N[C@@H]1C(=O)N2[C@@H]1SC(C)(C)[C@@H]2C(=O)O` [methicillin]: the “methicillin sensitivity of the strains” value in assay [1] (strains originally tested by Bhuyan et al, later study) was “sensitive”. For the same molecule, the “Susceptibility test results of the isolate” value in the assay on Staphylococcus aureus [2] is given as “resistant”.
For Paldimycin, the ED50 worked out at 12.7 mg/kg in the assay with S. aureus UC9213 (SQ), 8.1 mg/kg in the assay with S. aureus UC6685 (SQ) and 20.5 mg/kg in the assay on S. aureus UC9271 (SQ).
With `CN[C@H](CC(C)C)C(=O)N[C@H]1C(=O)N[C@@H](CC(N)=O)C(=O)N[C@H]2C(=O)N[C@H]3C(=O)N[C@H](C(=O)N[C@H](C(=O)O)c4cc(O)cc(O)c4-c4cc3ccc4O)[C@H](O)c3ccc(c(Cl)c3)Oc3cc2cc(c3O[C@@H]2O[C@H](CO)[C@@H](O)[C@H](O)[C@H]2O[C@H]2C[C@](C)(N)[C@H](O)[C@H](C)O2)Oc2ccc(cc2Cl)[C@H]1O` [vancomycin], the susceptibility entry in assay [3] is reported as “retained their susceptibility”.
Take `COc1ccc2c(O)c(NC(=O)c3cc(O[C@@H]4C[C@](C)([N+](=O)[O-])[C@@H](OC)[C@@H](C)O4)c(O)c(C(=O)O[C@H]4[C@H](O)C(=O)[C@]5(C)CNC6=C(O5)C(=O)c5c(cc(C)c(O)c5C(=O)/C(C)=C\[C@@H]4C)C6=O)n3)c(=O)oc2c1` [Rubradirin, rubradirin]: in assay [1] (two clinical strains resistant to several antibiotics), the in vitro activity result is “had in vitro activity”. Moreover, the “clinical symptoms of pneumonia” value in the assay with Staphylococcus aureus [4] is reported as “disappear”. Moreover, the temperature with Staphylococcus aureus [4] (fever of 103° F. before) was 98.6 ° F; in the assay with Staphylococcus aureus [5] (after 3 days, 101° F. fever before), “goes to normal”. Besides, the ED50 in the assay on S. aureus UC9213 (SQ) is 4.7 mg/kg; in the assay on S. aureus UC9213 (oral), 1.6 mg/kg; in the assay with S. aureus UC6685 (SQ), 4.7 mg/kg; in the assay with S. aureus UC6685 (oral), 11.1 mg/kg; in the assay with S. aureus UC9271 (SQ), 23.1 mg/kg; with S. aureus UC9271 (oral), 141 mg/kg. For the same molecule, the inflammation result with Staphylococcus aureus [5] is “less inflammation”. Also, the “wound infection and healing” value with Staphylococcus aureus [5] was “the wound is not infected and appears to be healing much better”. Further, the “Susceptibility test results of the isolate” value in the assay with Staphylococcus aureus [2] is on record as “susceptible”.
